The IC50 is the point on the concentration scale where inhibition reaches its midpoint. Lower therefore signals greater potency in that assay. The CC50 is the concentration that lowers cell viability or growth by half. Low readings indicate harm at low concentration, high ones better tolerance by the cells.

The subject of one series is HBV. As to the kind of experiment: HBV replication assay: HBV DNA from the supernatants of HepAD38 cells. The format is cell-based. The settings on record: Hepatitis B virus, 144 h, HBV DNA in supernatant at day 6, read-out: Cell Activity. As for the experimental part: Determination of HBV DNA from the Supernatants of HepAD38 Cells
The anti-HBV activity was analysed in the stable transfected cell line HepAD38, which has been described to secrete high levels of HBV virion particles (Ladner et al., 1997). In brief, HepAD38 cells were cultured at 37° C. at 5% CO2 and 95% humidity in 200 μl maintenance medium, which was Dulbecco's modified Eagle's medium/Nutrient Mixture F-12 (Gibco, Karlsruhe), 10% fetal bovine serum (PAN Biotech Aidenbach) supplemented with 50 μg/ml penicillin/streptomycin (Gibco, Karlsruhe), 2 mM L-glutamine (PAN Biotech, Aidenbach), 400 μg/ml G418 (AppliChem, Darmstadt) and 0.3 μg/ml tetracycline. Cells were subcultured once a week in a 1:5 ratio, but were usually not passaged more than ten times. For the assay 60,000 cells were seeded in maintenance medium without any tetracycline into each well of a 96-well plate and treated with serial half-log dilutions of test compound. To minimize edge effects the outer 36 wells of the plate were not used but were filled with assay medium. On each assay plate six wells for the virus control (untreated HepAD38 cells) and six wells for the cell control (HepAD38 cells treated with 0.3 μg/ml tetracycline) were allocated, respectively. In addition, one plate set with reference inhibitors like BAY 41-4109, entecavir, and lamivudine instead of screening compounds were prepared in each experiment. In general, experiments were performed thrice in triplicates. At day 6 HBV DNA from 100 μl filtrated cell culture supernatant (AcroPrep Advance 96 Filter Plate, […] Supor membran, PALL GmbH, Dreieich) was automatically purified on the MagNa Pure LC instrument using the MagNA Pure 96 DNA and Viral NA Small Volume Kit (Roche Diagnostics, Mannheim) according to the instructions of the manufacturer. EC50 values were calculated from relative copy numbers of HBV DNA In brief, 5 μl of the 100 μl eluate containing HBV DNA were subjected to PCR LC480 Probes Master Kit (Roche) together with 1 μM antisense primer […], 0.5 μM sense primer […], 0.3 μM hybprobes […]-FL and LC640-[…]-PH (TIBMolBiol, Berlin) to a final volume of […]. The PCR was performed on the Light Cycler 480 real time system (Roche Diagnostics, Mannheim) using the following protocol: Pre-incubation for 1 min at 95° C., amplification: 40 cycles×(10 sec at 95° C., 50 sec at 60° C., 1 sec at 70° C.), cooling for 10 sec at 40° C. Viral load was quantitated against known standards using HBV plasmid DNA of pCH-9/3091 (Nassal et al., 1990, Cell 63: 1357-1363) and the LightCycler 480 SW 1.5 software (Roche Diagnostics, Mannheim) and EC50 values were calculated using non-linear regression with GraphPad Prism 6 (GraphPad Software Inc., La Jolla, USA).

For series [1], the target named is T1, C-terminal truncated core protein (HBV core dimer, BODIPY-FL labelled) (UniProt P03146).
T1 construct: fused on or other part: One added cysteine at position 150, labelled with BODIPY-FL maleimide; The C-terminal arginine-rich domain is absent
Kind of series: Biochemical capsid assembly assay (fluorescence quenching). Put shortly:
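E. coli-expressed HBV core 1–149 plus Cys150 dimer, BODIPY-FL-labelled, at 1.0–2.0 μM in 50 mM HEPES pH 7.5, 0.5% DMSO. 8-point compound series; assembly started with NaCl, fluorescence quenching (ex 477/em 525 nm) read after 6 min. EC50 by non-linear regression versus 2.5 M and 0 M NaCl controls.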

Series [2] in a line: Cell viability assay (AlamarBlue). The note with it: human, HepAD38 cells. For orientation: Alamar Blue is a resazurin reagent that responds to reducing activity.

T1 sequence (P03146 whole entry, the tested form may be a part): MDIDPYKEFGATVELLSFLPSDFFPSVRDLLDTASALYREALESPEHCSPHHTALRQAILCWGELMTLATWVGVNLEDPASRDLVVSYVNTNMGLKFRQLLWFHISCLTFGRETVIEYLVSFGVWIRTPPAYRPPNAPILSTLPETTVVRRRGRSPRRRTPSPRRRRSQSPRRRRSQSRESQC

As for `O=C(NCCCCO)C(=O)N1CCN(C(=O)c2cc3ccccc3[nH]2)CC1` [Example 29, 2-(4-(1H-indole-2-carbonyl)piperazin-1-yl)-N-(4-hydroxybutyl)-2-oxoacetamide], the EC50 with HBV lay in the range of 1 to 10 µM. This compound came in with an IC50 in series [1] of less than 5 µM. Also, in series [2], the CC50 at 6 days is more than 100 µM.
As for `CCCCNC(=O)C(=O)N1CCN(C(=O)c2cc3ccc(F)cc3[nH]2)CC1` [Example 23, N-butyl-2-(4-(6-fluoro-1H-indole-2-carbonyl)piperazin-1-yl)-2-oxoacetamide], in the series on HBV, the EC50 was less than 1 µM. Moreover, the IC50 in series [1] is less than 5 µM. In addition, the CC50 at 6 days in series [2] was more than 100 µM.
For `O=C(NCCCCCO)C(=O)N1CCN(C(=O)c2cc3c(F)cc(F)cc3[nH]2)CC1` [Example 57, 2-(4-(4,6-difluoro-1H-indole-2-carbonyl)piperazin-1-yl)-N-(5-hydroxypentyl)-2-oxoacetamide], in that order: 1 to 10 µM, less than 5 µM and more than 100 µM.
Taken in the same sequence, the figures for `COC(C)CNC(=O)C(=O)N1CCN(C(=O)c2cc3c(F)cc(F)cc3[nH]2)CC1` (stereo not drawn) [Example 63, 2-(4-(4,6-difluoro-1H-indole-2-carbonyl)piperazin-1-yl)-N-(2-methoxypropyl)-2-oxoacetamide] were less than 1 µM, less than 5 µM and more than 100 µM.
Turning to `CCCCNC(=O)C(=O)N1CCCN(C(=O)c2cc3ccccc3[nH]2)CC1` [Example 8, N-butyl-2-[4-(1H-indole-2-carbonyl)-1,4-diazepan-1-yl]-2-oxoacetamide], the EC50 with HBV was less than 1 µM. In addition, the concentration for half-maximal inhibition (IC50) in series [1] is less than 100 µM. Also, the half-maximal cytotoxic concentration (CC50) at 6 days in series [2] was more than 100 µM.
As to `CCCCCCNC(=O)C(=O)N1CCN(C(=O)c2cc3ccccc3[nH]2)CC1` [Example 11, 2-(4-(1H-indole-2-carbonyl)piperazin-1-yl)-N-hexyl-2-oxoacetamide], the EC50 with HBV fell in the range of 1 to 10 µM. This compound displayed an IC50 in series [1] of less than 5 µM. In series [2], the CC50 at 6 days was more than 100 µM.
On to `O=C(NCC1(CO)CC1)C(=O)N1CCN(C(=O)c2cc3c(F)cc(F)cc3[nH]2)CC1` [Example 55, 2-(4-(4,6-difluoro-1H-indole-2-carbonyl)piperazin-1-yl)-N-((1-(hydroxymethyl)cyclopropyl)methyl)-2-oxoacetamide], for which the EC50 with HBV is less than 1 µM. Also, the half-inhibitory concentration (IC50) in series [1] is less than 5 µM. This compound yielded a cytotoxic concentration (CC50) at 6 days in series [2] of more than 100 µM.

Source of the values: patent US20220227737A1, “NOVEL OXALYL PIPERAZINES ACTIVE AGAINST THE HEPATITIS B VIRUS (HBV)” (AiCuris GmbH & Co. KG, priority 2019, published 2022).
